The values that follow come from ChEMBL document CHEMBL1201862, “PubChem BioAssay data set” (2004).

Some test systems named below: CCRF-CEM; HCT-15; LOX IMVI; MCF7; MDA-MB-231; MDA-MB-435; MDA-N; NCI-H23; NCI-H460; OVCAR-5; SF-539; SK-MEL-5; SK-OV-3; TK-10; HL-60; IGROV-1; Malme-3M; SF-295; T47D.
Assay in all cases: NCI-60 cell line screen, 48 h

SMILES strings stand for the structures.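 In this assay, cells in 96-well plates receive the compound at five concentrations for 48 hours. Endpoints are linearly interpolated between the surrounding concentrations. Here, GI50 denotes the concentration required for 50% inhibition of growth.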 The source made the active and inactive calls. No stated cut-off is given here; in the data, active = GI50 up to about 1.1 µM and inactive = higher. Non-standard residues stand in square brackets, D forms with d. Residues, ends and D or L forms follow the SMILES beside them. ξ: configuration not given here. *: point of attachment. NMeF = CN[C@@H](Cc1ccccc1)C(=O)O; ξNMeV = CNC(C(=O)O)C(C)C; Boc = CC(C)(C)OC(=O)*; OBn = c1ccc(CO*)cc1

Turning to `Cc1ccccc1C1OC1C(=O)c1ccccc1N` (stereo unspecified), the GI50 in the test with CCRF-CEM is > 100 µM (inactive); with HCT-15 it was 53.3 µM; in the test on LOX IMVI, 34.9 µM (inactive); with MCF7 it was 55.3 µM (inactive); in the test on MDA-MB-231, 31.6 µM (inactive); in the test with MDA-MB-435, 20.7 µM (inactive). Moreover, the GI50 with MDA-N was 14.1 µM (inactive); with NCI-H23, 38.6 µM (inactive); in the test on NCI-H460, 63.8 µM (inactive); with OVCAR-5, > 100 µM (inactive); with SF-539, 29.9 µM (inactive); in the test with SK-MEL-5 it was 44.5 µM (inactive). The GI50 in the test with SK-OV-3 and with TK-10 was > 100 µM (inactive) each time.
Consider `O=C(CCCN1CCC2(CC1)/C(=N/C1CCCCC1)NC(=O)N2c1ccccc1)c1ccc(F)cc1`, for which the GI50 with CCRF-CEM is 23.4 µM (inactive); in the test with HCT-15, 28.3 µM; in the test with HL-60, 23.1 µM (inactive); in the test on IGROV-1, 26.7 µM (inactive); in the test with LOX IMVI it was 14.2 µM (inactive); in the test on MCF7 it was 14.1 µM (inactive). The GI50 in the test on MDA-MB-231 is 12.4 µM (inactive); with MDA-MB-435, 20.1 µM (inactive); with MDA-N it was 18.2 µM (inactive); in the test on Malme-3M, 12.7 µM (inactive); in the test with NCI-H23, 21.3 µM (inactive); with NCI-H460 it was 22.7 µM (inactive). Further, the GI50 is 20.9 µM (inactive) with OVCAR-5; 19.5 µM (inactive) with SF-295; 18.8 µM (inactive) in the test with SF-539; 23.1 µM (inactive) in the test on SK-MEL-5; 29.9 µM (inactive) in the test on T47D; 22.5 µM (inactive) in the test with TK-10.
For `Cc1cccc2c(N)c3cccc(C(=O)NCC[N+](C)(C)Cc4ccccc4[N+](=O)[O-])c3nc12`, the GI50 with CCRF-CEM was 1.78 µM (inactive); in the test on HCT-15 it was more than 20.3 µM; with IGROV-1 it was 5.78 µM (inactive); in the test on LOX IMVI, 26.2 µM (inactive); with MCF7, 4.35 µM (inactive); in the test with MDA-MB-231 it was 13.6 µM (inactive). For the same compound, the GI50 in the test with MDA-MB-435 was 21.1 µM (inactive); in the test on MDA-N, 16.9 µM (inactive); in the test on Malme-3M, 6.76 µM (inactive); in the test on NCI-H23, 5.22 µM (inactive); in the test with NCI-H460, 2.24 µM (inactive); in the test with OVCAR-5, 13 µM (inactive). The GI50 in the test on SF-295 was 6.32 µM (inactive); in the test with SF-539 it was 7.94 µM (inactive); in the test on SK-MEL-5, 7.57 µM (inactive); in the test with SK-OV-3, 12.6 µM (inactive); in the test on T47D, 14.2 µM (inactive); in the test with TK-10 it was 6.62 µM (inactive).
For the compound `COc1cc2oc(=O)cc(C)c2c(OC)c1OC(C)=O`, the GI50 in the test on CCRF-CEM is > 100 µM (inactive); in the test on HCT-15, more than 100 µM; with IGROV-1, > 100 µM (inactive); with LOX IMVI it was > 100 µM (inactive); with MCF7 it was > 100 µM (inactive); in the test on MDA-MB-231 it was > 100 µM (inactive). Further, the GI50 in the test on MDA-MB-435, in the test on MDA-N, in the test on Malme-3M, in the test on NCI-H23, in the test with OVCAR-5 and in the test with SF-295 was > 100 µM (inactive) throughout. Also, the GI50 in the test on SK-MEL-5, in the test on SK-OV-3 and in the test with TK-10 was > 100 µM (inactive) each time.
As for `C=CCCCCCC(O)C(O)C/C=C\C/C=C\CC` (stereo unspecified), the GI50 was > 18.8 µM (inactive) in the test on CCRF-CEM; more than 18.8 µM in the test on HCT-15; > 7.71 µM (inactive) in the test on HL-60; > 18.8 µM (inactive) in the test with IGROV-1; > 15.4 µM (inactive) with LOX IMVI; > 18.8 µM (inactive) with Malme-3M. For the same compound, the GI50 was > 17.8 µM (inactive) in the test with NCI-H23; 13.5 µM (inactive) in the test on NCI-H460; > 18.8 µM (inactive) with OVCAR-5; > 18.8 µM (inactive) in the test on SF-295; > 18.8 µM (inactive) in the test on SF-539; > 17.5 µM (inactive) with SK-MEL-5. Also, the GI50 in the test on SK-OV-3 and with TK-10 was > 18.8 µM (inactive) each time.
On to `O=C(O)CCC1(CCC(=O)O)CCCCCCCCC(CCC(=O)O)(CCC(=O)O)C(=O)C1=O`, for which the GI50 in the test on HCT-15 was more than 100 µM; with HL-60, > 100 µM (inactive); in the test with LOX IMVI, > 100 µM (inactive); in the test on MCF7, > 100 µM (inactive); in the test with MDA-MB-435, > 100 µM (inactive); in the test on Malme-3M, > 100 µM (inactive). Further, the GI50 in the test with NCI-H23, in the test on NCI-H460, with OVCAR-5, with SF-295, in the test with SF-539 and with SK-OV-3 was > 100 µM (inactive) throughout. Further, the GI50 in the test on T47D and in the test on TK-10 was > 100 µM (inactive) in each case.
For `N#Cc1nc(/C=C/c2cccs2)oc1N`, the GI50 in the test on CCRF-CEM is 25.4 µM (inactive); with HCT-15 it was 94.4 µM; with HL-60, 12.6 µM (inactive); with IGROV-1, 65.9 µM (inactive); in the test with LOX IMVI, > 100 µM (inactive); in the test with MCF7, 99.1 µM (inactive). Further, the GI50 in the test on MDA-MB-231 was > 100 µM (inactive); in the test on MDA-MB-435 it was > 100 µM (inactive); in the test with MDA-N, > 100 µM (inactive); in the test with OVCAR-5 it was > 100 µM (inactive); in the test with SK-MEL-5 it was 51.1 µM (inactive); in the test with SK-OV-3 it was > 100 µM (inactive). The GI50 in the test with TK-10 is 61.4 µM (inactive).
In the case of `O=C1c2ccccc2C2=Cc3ccccc3C(O)N12` (stereo unspecified), the GI50 is 36.5 µM (inactive) in the test on CCRF-CEM; more than 100 µM with HCT-15; 26.2 µM (inactive) with HL-60; > 100 µM (inactive) in the test with IGROV-1; 38.6 µM (inactive) with LOX IMVI; > 100 µM (inactive) in the test on MCF7. Also, the GI50 in the test on MDA-MB-231, in the test with MDA-MB-435, in the test with MDA-N, in the test on Malme-3M, with NCI-H23 and in the test with NCI-H460 was > 100 µM (inactive) throughout. Further, the GI50 with OVCAR-5 was > 100 µM (inactive); with SF-295, > 100 µM (inactive); in the test with SF-539, > 100 µM (inactive); in the test on SK-MEL-5, > 100 µM (inactive); in the test with SK-OV-3, > 100 µM (inactive); with T47D, 70.5 µM (inactive). In the test on TK-10, the GI50 is > 100 µM (inactive).
Regarding `CCOC(=O)c1cnc2[nH]c(=O)c3ccccc3n2c1=O`, the GI50 was > 100 µM (inactive) with CCRF-CEM; more than 100 µM in the test with HCT-15; 85.5 µM (inactive) in the test with HL-60; > 100 µM (inactive) in the test on IGROV-1; > 100 µM (inactive) in the test with LOX IMVI; > 100 µM (inactive) in the test with Malme-3M. For the same compound, the GI50 in the test on NCI-H23, in the test with NCI-H460, in the test with OVCAR-5, in the test on SF-295, in the test on SF-539 and in the test with SK-MEL-5 was > 100 µM (inactive) in each case. For the same compound, the GI50 in the test with SK-OV-3 and in the test with TK-10 was > 100 µM (inactive) throughout.
With `COC1=C(NC(C)=O)C(=O)c2nc3n(c2C1=O)CCC3`, the GI50 in the test with CCRF-CEM is 3.78 µM (inactive); with HCT-15 it was 23.4 µM; in the test on HL-60, 10.1 µM (inactive); in the test on IGROV-1, 19.3 µM (inactive); in the test on LOX IMVI, 16.1 µM (inactive); in the test with MCF7, 23.1 µM (inactive). Besides, the GI50 was 13.3 µM (inactive) with MDA-MB-231; 3.64 µM (inactive) in the test with MDA-MB-435; 2.83 µM (inactive) with MDA-N; 20.4 µM (inactive) in the test on Malme-3M; 20.4 µM (inactive) with NCI-H23; 27.5 µM (inactive) in the test on NCI-H460. Also, the GI50 in the test on OVCAR-5 is 18.7 µM (inactive); in the test with SF-295 it was 20.5 µM (inactive); in the test on SF-539 it was 18.6 µM (inactive); with SK-MEL-5 it was 17.5 µM (inactive); in the test on SK-OV-3, 41.6 µM (inactive); in the test with T47D, 34.3 µM (inactive). In the test with TK-10, the GI50 was 30.3 µM (inactive).
As to `COCOCC[C@@H]1CC=CC(NC(=O)OCc2ccccc2)C1/C=C/C(=O)CCC1OCCO1` (stereo partly specified), the GI50 was 17.3 µM (inactive) with CCRF-CEM; 16.4 µM in the test on HCT-15; 18.5 µM (inactive) with HL-60; 56.6 µM (inactive) with IGROV-1; 18.5 µM (inactive) in the test with LOX IMVI; 98.2 µM (inactive) in the test on Malme-3M. In addition, the GI50 with NCI-H23 was 37.6 µM (inactive); in the test with NCI-H460, 38.6 µM (inactive); with OVCAR-5, > 72.8 µM (inactive); with SF-295, 48.1 µM (inactive); in the test on SF-539, 25.6 µM (inactive); with SK-MEL-5, 55.2 µM (inactive). In addition, the GI50 in the test on SK-OV-3 is 54.5 µM (inactive); in the test on TK-10, 46.8 µM (inactive).
Regarding `CC(C)C(C(=O)N1CCC[C@@H]1C(=O)OCc1ccccc1)N(C)C(=O)C(C(C)C)N(C)C(=O)[C@H](Cc1ccccc1)N(C)C(=O)[C@H](NC(=O)OC(C)(C)C)C(C)C` (stereo partly specified) (Boc-[dV][NMeF][ξNMeV][ξNMeV][dP]-OBn), the GI50 is > 54.5 µM (inactive) in the test on CCRF-CEM; more than 30.9 µM with HCT-15; 4.12 µM (inactive) in the test on HL-60; > 100 µM (inactive) in the test with IGROV-1; > 60.3 µM (inactive) in the test with LOX IMVI; > 89.5 µM (inactive) with Malme-3M. In addition, the GI50 in the test on NCI-H23 was > 81.3 µM (inactive); in the test with NCI-H460, > 24.3 µM (inactive); in the test with OVCAR-5 it was > 100 µM (inactive); in the test with SF-295 it was 9.04 µM (inactive); with SF-539 it was > 100 µM (inactive); in the test with SK-MEL-5, 14.9 µM (inactive). Further, the GI50 in the test on SK-OV-3 and in the test with TK-10 was > 100 µM (inactive) throughout.
